Source: BigSolDB 2.1

C/C(=C/C(C)=N/c1c(C(C)C)cccc1C(C)C)Nc1c(C(C)C)cccc1C(C)C
solubility (mole fraction)
Conditions	in THF	in ethanol	in methanol	in n-hexane	in toluene
268.15 K	0.101	0.0008	–	0.0374	0.054
273.15 K	0.108	0.0009	–	0.0417	0.061
278.15 K	0.114	0.001	–	0.0464	0.0673
283.15 K	0.122	0.0013	0.0001	0.048	0.078
288.15 K	0.138	0.0015	0.0002	0.0546	0.087
293.15 K	0.15	0.0019	0.0002	0.0609	0.099
298.15 K	0.169	0.0022	0.0003	0.0699	0.108
303.15 K	0.184	0.0025	0.0004	0.078	0.127
308.15 K	0.199	0.003	0.0005	0.0891	0.145
313.15 K	0.223	0.0036	0.0007	0.103	0.151
318.15 K	–	–	0.0008	–	–
